The source of these data is US10226451B2, “Substituted bicyclic compounds as bromodomain inhibitors” (ZENITH EPIGENETICS LTD, priority 2013, dated 2019).

In experiment [1] the test system is Bcl2 and c-myc gene expression in MV4-11 and MM1.s tumors. Description: Evaluation of target engagement in xenograft tumors (PD biomarkers). It counts as in vivo, mouse. The note with it: oral dose, tumors harvested 3, 6, 12, 24 hrs post dose. As for the experimental part: MV4-11 and MM1.s cells (ATCC) were grown under standard cell culture conditions and (NCr) nu/nu fisol strain of female mice age 6-7 weeks were injected with 5×10^6 cells/animal in 100 μL PBS+100 μL Matrigel in the lower left abdominal flank. By approximately day 28 after MV4-11 and MM1.s cells injection, mice were randomized based on tumor volume (L×W×H)/2) of average ˜500 mm^3. Mice were dosed orally with compound in EA006 formulation at 10 mL/kg body weight dose volume and tumors harvested 3, 6, 12, 24 hrs post dose for Bcl2 and c-myc gene expression analysis as PD biomarkers.

The subject of experiment [2] is hIL-17 mRNA in human peripheral blood mononuclear cells. The experiment is described as follows: Inhibition of hIL-17 mRNA transcription in OKT3-stimulated PBMC. It counts as cell-based. The settings on record: OKT3 antibody, 6 h, read-out: IL-17 activity. As for the experimental part:
In this example, hIL-17 mRNA in human peripheral blood mononuclear cells were quantitated to measure the transcriptional inhibition of hIL-17 when treated with a compound of the present disclosure.
Human peripheral blood mononuclear cells were plated (2.0×10^5 cells per well) in a 96-well plate in 45 μL OpTimizer T Cell expansion media (Life Technologies) containing 20 ng/ml IL-2 and penicillin/streptomycin. The cells were treated with increasing concentrations of the test compound or DMSO (0.1%), and incubated at 37° C., 5% CO2 for 1 h before addition of 10× stock OKT3 antibody at 10 ug/ml in media. Triplicate wells were used for each concentration. Cells were incubated at 37° C., 5% CO2 for 6 h before the cells were harvested. At time of harvest, cells were pelleted by centrifugation at 800 rpm for 5 min. Cells were harvested using the mRNA Catcher PLUS kit according to manufacturer's instructions. The eluted mRNA was then used in a one-step quantitative real-time PCR reaction, using components of the RNA UltraSense™ One-Step Kit (Life Technologies) together with Applied Biosystems TaqMan® primer-probes for hIL-17 and Cyclophilin. Real-time PCR plates were run on a ViiA™7 real time PCR machine (Applied Biosystems), data was analyzed, normalizing the Ct values for hIL-17 to an internal control, prior to determining the fold induction of each unknown sample, relative to the control.

The next experiment has as its system Human AML MV-4-11 cells. The experiment is described as follows: Inhibition of cell proliferation in MV4-11 cells (CellTiter Aqueous One). The experiment is classed as cell-based. The settings on record: 72 h. The essentials: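 MV4-11 cells at 5×10^4/well in IMDM with 10% FBS were exposed to increasing compound concentrations or 0.1% DMSO, in triplicate, for 72 h at 37 °C. A further 3-4 h with CellTiter Aqueous One reagent followed. A490, blank-corrected and expressed relative to DMSO, gave IC50.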

In experiment [3] the test system is hApoA-I mRNA in Huh7 cells. Description: Up-regulation of hApoA-1 mRNA transcription in Huh7 cells. It counts as cell-based, Human. The note with it: EC170, Huh7 cells, 48 h. The procedure: In this example, hApoA-I mRNA in tissue culture cells was quantitated to measure the transcriptional up-regulation of hApoA-I when treated with a compound of the present disclosure.
Huh7 cells (2.5×10^5 per well) were plated in a 96-well plate using 100 μL DMEM per well, (Gibco DMEM supplemented with penicillin/streptomycin and 10% FBS), 72 h before the addition of the compound. The cells are treated with increasing concentrations of the compound or DMSO (0.1%), and incubated at 37° C., 5% CO2 for 48 h. Spent media was removed from the Huh-7 cells and placed on ice for immediate use with the “LDH cytotoxicity assay Kit II” from Abcam. The cells remaining in the plate were rinsed with 100 μL PBS. Cells were harvested using the mRNA Catcher PLUS kit according to manufacturer's instructions. The eluted mRNA was then used in a one-step quantitative real-time PCR reaction, using components of the RNA UltraSense™ One-Step Kit (Life Technologies) together with Applied Biosystems TaqMan® primer-probes for hApoA-I and Cyclophilin. Real-time PCR plates were run on a ViiA™7 real time PCR machine (Applied Biosystems), data was analyzed, normalizing the Ct values for hApoA-1 to an internal control, prior to determining the fold induction of each unknown sample, relative to the control.

Another experiment deals with MV4-11 cells xenograft. Description: In vivo efficacy, acute myeloid leukemia xenograft model using MV4-11 cells. Details: species or system mouse. The settings on record: MV4-11 xenograft, nu/nu mice, oral dosing, tumor growth inhibition. As for the experimental part:
MV4-11 cells (ATCC) were grown under standard cell culture conditions and (NCr) nu/nu fisol strain of female mice age 6-7 weeks were injected with 5×10^6 cells/animal in 100 μL PBS+100 μL Matrigel in the lower left abdominal flank. By approximately day 18-21 after MV4-11 cells injection, mice were randomized based on tumor volume (L×W×H)/2) of average ˜100-300 mm^3. Mice were dosed orally with compound at 5 to 120 mg/kg b.i.d and/or q.d. on a continuous dosing schedule and at 2.5 to 85 mg/kg q.d. on a 5 day on 2 day off, 100 mg/kg q.d. on a 4 day on and 3 day off, 135 mg/kg q.d. on a 3 day on and 4 day off, 180 mg/kg on a 2 day on and 5 day off and 240 mg/kg on a 1 day on and 6 days off dosing schedules in EA006 formulation at 10 mL/kg body weight dose volume. Tumor measurements were taken with electronic micro calipers and body weights measured on alternate days beginning from dosing period. The average tumor volumes, percent Tumor Growth Inhibition (TGI) and % change in body weights were compared relative to Vehicle control animals. The means, statistical analysis and the comparison between groups were calculated using Student's t-test in Excel.

As for `Cc1noc(C)c1-c1cc(-c2c(C)nn(C)c2C)c2c(c1)[nH]c(=O)n2C` [Example Compound 9, 5-(3,5-dimethylisoxazol-4-yl)-1-methyl-7-(1,3,5-trimethyl-1H-pyrazol-4-yl)-1H-benzo[d]imidazol-2(3H)-one], the In vivo activity result (in experiment [1]; in the experiment with MV4-11 cells xenograft) was “Active” throughout. Also, the IC50 (in experiment [2]; in the experiment on Human AML MV-4-11 cells) was no more than 300 nM each time. Besides, in experiment [3], the ApoA-1 activity result is given as “+++ (EC170 value less than or equal to 0.3 μM were deemed to be highly active (+++))”.
